Values of other authors, collected in patent publication US10154967B2, “2,2′,6,6′-tetraisopropyl-4,4′-biphenol lipid microsphere preparations and preparation methods therefor” (XI'AN LIBANG PHARMACEUTICAL CO., LTD, priority 2012, dated 2018).

What was measured:
[1] = compared with propofol
[2] = system: GABA receptors
[3] = system: GABA receptors; remark: listed apart in the source
[4] = system: NMDA receptors; conditions: regulating the Ca2+ influx in Ca2+ channels
[5] = system: excitotoxic effect induced by kainate (kainic acid)
[6] = system: patients

Compound: CC(C)c1cc(-c2cc(C(C)C)c(O)c(C(C)C)c2)cc(C(C)C)c1O [biphenol]
- antioxidant strength [1]: significantly stronger antioxidant than propofol
- action at GABA receptors [2]: agonist
- affinity towards GABA receptors [3]: strong affinity
- action at NMDA receptors [4]: antagonist
- protection against the excitotoxic effect induced by kainate [5]: protection
- lipid solubility: highly lipid soluble
- solubility in water: difficult to dissolve in water
- loss of consciousness [6]: does not cause the patients to lose consciousness
